Assays:
Type in all cases: cell-based
[1] = tested on: human gastric carcinoma cell line (NCI-N87); assay: MTT anti-proliferative assay, NCI-N87 (Examples 3-12); conditions: for % stim. / Mean OD (570 nm) / inhibition at 200 µg/mL / % inhibition: 200 μg/ml; for % stim. / Mean OD (570 nm) / % inhibition: 48 hours
Description: (§1) 5-phenylpenta-2,4-dienoic acid was assessed for its ability to modulate the viability and proliferation of human colorectal adenocarcinoma cells (DLD-1); human colon cancer cell line (HCT-116); human gastric carcinoma cell line (NCI-N87); and human oesophageal squamous cell carcinoma cell line (KYSE-30) as assessed by the MTT assay. The positive control, 5-fluorouracil (5-FU) was included at three concentrations; in addition to an unsupplemented cell control as a negative control in the study. The 5-phenylpenta-2,4-dienoic acid was a genuine standard with chemical structure confirmed by NMR and MS.
(§2) The four human gastrointestinal carcinoma cell lines were revived from cryostorage and cultured in the presence of the test and reference samples. An MTT assay was then performed on the cultures to determine the effect of the samples on the cell viability and proliferation.
(§3) The test sample 5-phenylpenta-2,4-dienoic acid, and all other test samples in Examples 4-12 (except tectochrysln) were Initially dissolved in pure ethanol to a concentration of around 13.35 mg/ml. Tectochrysin was initially dissolved in triethylene glycol mono-methyl ether to the same concentration. Working solutions were then prepared from the stock solutions by dilution to 15% ethanol/Hanks Balanced Salt Solution (ETOH)/HBSS to a concentration of 2 mg/mL solids. In the assay the final concentration of the samples was 200 μg/ml with a final EtOH concentration of 1.5%. Final concentrations of test compounds and propolis prepared as above are as noted in Example 3.
(§4) • 1. Human colorectal adenocarcinoma cells (ATCC CCI-221, DLD-1)(ATCC, Bethesda, Md., USA) • 2. Human gastric carcinoma cells (ATCC CRL-5822, NCI-N87)(ATCC, Bethesda, Md., USA) • 3. Human oesophageal squamous cell carcinoma (ECACC, KYSE-30)(Sigma Aldrich, Auckland, NZ) • 4. Human colon carcinoma cells (ECACC HCT-116)(Sigma Aldrich, Auckland, NZ) • 5. Penicillin-streptomycin solution: 10000 units/ml penicillin, 10 mg/ml streptomycin in 0.9% NaCl (Sigma Cat #P-0781). Stored at −20° C. • 6. For DLD-1 cells: DMEM culture medium (Invitrogen Cat #12100-046). Stored at 4° C. • 7. For NCI-N87 cells: RPMI-1640 medium modified to contain 2 mM L-glutamine, 10 mM HEPES, 1 mM sodium pyruvate, 4500 mg/L glucose, and 1500 mg/L sodium bicarbonate (Sigma R6504). Stored at 4° C. • 8. For KYSE-410 cells: RPMI-1640 medium modified to contain 2 mM L-glutamine (Sigma R6504). Stored at 4° C. • 9. For HCT-116 cells: McCoy's 5A medium modified to contain 2 mM L-glutamine (Sigma M48792). Stored at 4° C. • 10. Trypsin-EDTA solution: 0.25% Trypsin/EDTA, Invitrogen Cat#15400054 (×10 in stock). • 11. Phosphate buffered saline (PBS) (Prepared by TBL). • 12. Hanks Balanced Salt Solution (HBSS). (GIBCO Cat No. 14185-052). Stored at 4° C. • 13. Foetal Bovine Serum (GIBCO Cat #10091-148). Stored at −20° C. • 14. MTT Reagent: 100 mg/vial, (SIGMA Cat. No. M-2128) dissolved in PBS at 10 mg/ml and stored at −20° C. 5 mg/ml MTT solution will be prepared in PBS and stored at 4° C. as working solution. • 15. MTT lysis buffer: 10% sodium dodecyl sulphate (SDS)/45% Dimethyl Formamide (20 g SDS will be dissolved in 100 ml of double-distilled water (DDW), and 90 ml of Dimethyl Formamide will be added to the SDS solution). The pH will be adjusted to 4.7 by glacial acetic acid, and DDW added up to a final volume of 200 ml. • 16. 5-Fluorouracil (5-FU), (Sigma Cat. No. F-6627). Three working solutions will be prepared at 19.5 μg/ml. 6.5 μg/ml and 1.95 μg/ml dissolved in 15% Ethanol/HBSS. Final concentrations will be 1.95 μg/ml (15 μM), 0.65 μg/ml (5 μM) and 0.195 μg/ml (1.5 μM).
(§5) The medium for the propagation of the each of the cells lines is given above. Each medium was prepared following the ATCC/ECACC instructions and supplemented with penicillin-streptomycin solution (10 ml per litre). FBS (at 10%) was added just before use.
• 1. […]

[2] = tested on: human colorectal adenocarcinoma cells (DLD-1); assay: MTT anti-proliferative assay, DLD-1 (Examples 3-12); conditions: for % stim. / Mean OD (570 nm) / inhibition at 200 µg/mL / % inhibition: 200 μg/ml; for % stim. / Mean OD (570 nm) / % inhibition: 48 hours
Description: as §1, §2, §3, §4, §5
• 1. […]

[3] = tested on: human oesophageal squamous cell carcinoma cell line (KYSE-30); assay: MTT anti-proliferative assay, KYSE-30 (Examples 3-13)
Description: as §1, §2, §3, §4, §5
• 1. […]

[4] = Examples 3-12, 200 μg/ml, 48 hours
[5] = Homo sapiens, KYSE-30, 48 h, Examples 3-12, 200 μg/ml, 48 hours

Compound	% stim. [1] [%]	Mean OD (570 nm) [1]	inhibition at 200 µg/mL ([1]; Homo sapiens, NCI-N87, 48 h) [%]	% stim. [2] [%]	Mean OD (570 nm) [2]	inhibition at 200 µg/mL ([2]; Homo sapiens, DLD-1, 48 h) [%]	% stim. [3, 4] [%]	Mean OD (570 nm) [3, 4]	inhibition at 200 µg/mL [3, 5] [%]	% inhibition [1] [%]	% inhibition [2] [%]	further results
O=C1C[C@@H](c2ccccc2)Oc2cc(O)cc(O)c21 [Pinocembrin, reference compound]	0	0.1214	72.5	0	0.0341	91.7	0	0.0225	96.3	–	–	–
O=c1[nH]cc(F)c(=O)[nH]1 [Sample 5-FU, 5-fluorouracil, reference compound]	–	–	–	–	–	–	–	–	–	–	–	inhibition at 0.195 µg/mL ([1]; Homo sapiens, NCI-N87, 48 h, 0.195 μg/ml): 7.52%; inhibition at 0.65 µg/mL ([1]; Homo sapiens, NCI-N87, 48 h, 0.65 μg/ml): 17.2%; inhibition at 1.95 µg/mL ([1]; Homo sapiens, NCI-N87, 48 h, 1.95 μg/ml): 16.2%; inhibition at 0.195 µg/mL ([2]; Homo sapiens, DLD-1, 48 h, 0.195 μg/ml): 26.5%; inhibition at 0.65 µg/mL ([2]; Homo sapiens, DLD-1, 48 h, 0.65 μg/ml): 37.3%; inhibition at 1.95 µg/mL ([2]; Homo sapiens, DLD-1, 48 h, 1.95 μg/ml): 41.6%; inhibition at 0.195 µg/mL ([3]; Homo sapiens, KYSE-30, 48 h, Examples 3-12, 0.195 μg/ml, 48 hours): 23.8%; inhibition at 0.195 µg/mL ([3]; Homo sapiens, KYSE-30, Example 13, 0.195 μg/ml): 3.41%; inhibition at 0.65 µg/mL ([3]; Homo sapiens, KYSE-30, Example 13, 0.65 μg/ml): 16.6%; inhibition at 1.95 µg/mL ([3]; Homo sapiens, KYSE-30, Example 13, 1.95 μg/ml): 31.5%
COc1cc(O)c2c(=O)cc(-c3ccccc3)oc2c1 [Tectochrysin, tectochrysin]	–	–	–	–	–	–	–	–	–	54.0	92.8	% inhibition [3, 4]: 87.6%
O=C(O)/C=C/c1ccc(O)cc1 [p-coumaric acid, para-coumaric acid, reference compound]	0	0.3652	17.3	0	0.3531	14.3	0	0.3243	46.1	17.31	14.34	–

From US20160030364A1, “Therapeutic Compositions and Uses Thereof” (MANUKA HEALTH NEW ZEALAND LIMITED, priority 2013, published 2016)
